Calls of active or inactive are those of the source. The calls are words filed in the database; no cut-off is given here.
Tests used:
[1] = Cytotoxicity against rat H9c2 cells assessed as inhibition of cell growth incubated for 48 hrs by MTT assay; format: toxicity, cell-based
[2] = system: Jurkat; assay: Cytotoxicity against human Jurkat cells assessed as inhibition of cell growth incubated for 48 hrs by MTT assay; format: functional, cell-based
[3] = system: HCC1937; assay: Cytotoxicity against human HCC1937 cells assessed as inhibition of cell growth incubated for 48 hrs by MTT assay; format: functional, cell-based; details: HCC1937, 48 h
[4] = system: MDA-MB-231; assay: Cytotoxicity against human MDA-MB-231 cells assessed as inhibition of cell growth incubated for 48 hrs by MTT assay; format: functional, cell-based; details: MDA-MB-231, 48 h
[5] = system: 4T1; assay: Cytotoxicity against mouse 4T1 cells assessed as inhibition of cell growth incubated for 48 hrs by MTT assay; format: functional, cell-based; details: 4T1, 48 h, read-out: IC50
[6] = system: MCF7; assay: Induction of mitochondrial respiration in human MCF7 cells assessed as increase in oxygen consumption rate at 1 uM in presence of LEAK state by high-resolution fluorespirometry analysis; format: functional, cell-based
[7] = system: 4T1; assay: Induction of mitochondrial respiration in mouse 4T1 cells assessed as increase in oxygen consumption rate at 1 uM in presence of LEAK state by high-resolution fluorespirometry analysis; format: functional, cell-based
[8] = system: HCC1937; assay: Induction of mitochondrial respiration in human HCC1937 cells assessed as increase in oxygen consumption rate at 1 uM in presence of LEAK state by high-resolution fluorespirometry analysis; format: functional, cell-based
[9] = system: Jurkat; assay: Induction of mitochondrial respiration in human Jurkat cells assessed as increase in oxygen consumption rate at 1 uM in presence of LEAK state by high-resolution fluorespirometry analysis; format: functional, cell-based
[10] = system: MCF7; assay: Induction of mitochondrial respiration in human MCF7 cells assessed as increase in oxygen consumption rate at 1 uM in presence of OXPHOS state by high-resolution fluorespirometry analysis; format: functional, cell-based
[11] = system: 4T1; assay: Induction of mitochondrial respiration in mouse 4T1 cells assessed as increase in oxygen consumption rate at 1 uM in presence of OXPHOS state by high-resolution fluorespirometry analysis; format: functional, cell-based
[12] = system: HCC1937; assay: Induction of mitochondrial respiration in human HCC1937 cells assessed as increase in oxygen consumption rate at 1 uM in presence of OXPHOS state by high-resolution fluorespirometry analysis; format: functional, cell-based
[13] = system: Jurkat; assay: Induction of mitochondrial respiration in human Jurkat cells assessed as increase in oxygen consumption rate at 1 uM in presence of OXPHOS state by high-resolution fluorespirometry analysis; format: functional, cell-based
[14] = system: MCF7; assay: Induction of ROS production in human MCF7 cells at 1 uM in presence of pyruvate and malate by high-resolution fluorespirometry analysis; format: functional, cell-based
[15] = system: 4T1; assay: Induction of ROS production in mouse 4T1 cells at 1 uM in presence of pyruvate and malate by high-resolution fluorespirometry analysis; format: functional, cell-based
[16] = system: HCC1937; assay: Induction of ROS production in human HCC1937 cells at 1 uM in presence of pyruvate and malate by high-resolution fluorespirometry analysis; format: functional, cell-based
[17] = system: Jurkat; assay: Induction of ROS production in human Jurkat cells at 1 uM in presence of pyruvate and malate by high-resolution fluorespirometry analysis; format: functional, cell-based
[18] = system: 4T1; assay: Induction of ROS production in mouse 4T1 cells assessed as decrease in NAD+/NADH ratio at 1 uM incubated for 20 mins by fluorescence cell counter analysis; format: functional, cell-based
[19] = system: 4T1; assay: Induction of ROS production in mouse 4T1 cells assessed as decrease in NAD+ level at 1 uM incubated for 20 mins by fluorescence cell counter analysis; format: functional; set-up: scale not given: the % may be the effect or the level left
[20] = system: 4T1; assay: Induction of ROS production in mouse 4T1 cells assessed as decrease in NADH level at 1 uM incubated for 20 mins by fluorescence cell counter analysis; format: functional; set-up: scale not given: the % may be the effect or the level left
[21] = system: H9c2; assay: Induction of ROS production in rat H9c2 cells assessed as decrease in NAD+ level at 1 uM incubated for 20 mins by fluorescence cell counter analysis; format: functional, cell-based
[22] = system: H9c2; assay: Induction of ROS production in rat H9c2 cells assessed as decrease in NADH level at 1 uM incubated for 20 mins by fluorescence cell counter analysis; format: functional, cell-based
[23] = system: H9c2; assay: Induction of ROS production in rat H9c2 cells assessed as decrease in NAD+/NADH ratio at 1 uM incubated for 20 mins by fluorescence cell counter analysis; format: functional, cell-based
[24] = molecular target: T1, Pyruvate kinase PKM (Homo sapiens, UniProt P14618); assay: Inhibition of PKM2 (unknown origin) by ITC analysis
Target sequence in this assay (P14618 whole entry): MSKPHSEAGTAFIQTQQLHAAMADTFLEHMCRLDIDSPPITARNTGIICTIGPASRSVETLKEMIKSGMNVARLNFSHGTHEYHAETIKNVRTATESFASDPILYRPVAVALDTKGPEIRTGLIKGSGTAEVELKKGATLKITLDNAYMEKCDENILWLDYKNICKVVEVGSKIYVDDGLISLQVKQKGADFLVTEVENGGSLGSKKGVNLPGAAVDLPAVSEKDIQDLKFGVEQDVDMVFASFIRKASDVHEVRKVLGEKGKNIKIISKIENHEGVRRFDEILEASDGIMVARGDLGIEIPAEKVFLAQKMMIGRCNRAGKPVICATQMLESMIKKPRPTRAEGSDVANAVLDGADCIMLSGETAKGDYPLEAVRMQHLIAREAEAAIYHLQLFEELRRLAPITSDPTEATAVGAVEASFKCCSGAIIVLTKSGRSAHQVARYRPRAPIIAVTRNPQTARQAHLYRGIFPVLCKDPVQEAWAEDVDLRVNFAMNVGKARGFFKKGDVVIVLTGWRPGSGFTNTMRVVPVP

[25] = molecular target: T1, Pyruvate kinase PKM; assay: Inhibition of N-terminal his8-tagged PKM2 (unknown origin)
Target sequence in this assay (P14618 whole entry): as above

[26] = molecular target: T1, Pyruvate kinase PKM; assay: Inhibition of N-terminal his8-tagged PKM2 (unknown origin) in presence of FBP by Michaelis-menten analysis
Target sequence in this assay (P14618 whole entry): as above

[27] = molecular target: T1, Pyruvate kinase PKM; assay: Inhibition of PKM1 (unknown origin); set-up: concentration or dose not given beside the values; details: concentration not given here
Target sequence in this assay (P14618 2-531 limits assumed): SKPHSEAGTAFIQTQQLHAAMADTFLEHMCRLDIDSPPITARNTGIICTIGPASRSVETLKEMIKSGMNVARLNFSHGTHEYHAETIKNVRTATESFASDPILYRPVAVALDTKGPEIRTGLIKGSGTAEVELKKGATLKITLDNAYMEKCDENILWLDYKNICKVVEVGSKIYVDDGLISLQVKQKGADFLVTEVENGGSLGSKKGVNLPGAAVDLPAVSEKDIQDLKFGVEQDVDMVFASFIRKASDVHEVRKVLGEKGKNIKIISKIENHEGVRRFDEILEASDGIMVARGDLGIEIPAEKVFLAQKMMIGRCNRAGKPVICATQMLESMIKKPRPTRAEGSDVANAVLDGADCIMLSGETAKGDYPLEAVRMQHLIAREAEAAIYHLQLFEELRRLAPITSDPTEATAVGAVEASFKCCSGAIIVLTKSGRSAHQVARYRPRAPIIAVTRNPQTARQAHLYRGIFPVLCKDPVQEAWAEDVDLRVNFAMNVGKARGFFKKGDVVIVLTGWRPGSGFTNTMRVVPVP

[28] = species: Oryctolagus cuniculus; assay: Inhibition of rabbit LDH at 1 uM relative to control
[29] = Binding affinity to Sprague-Dawley rat liver Cardiolipin incubated for 10 mins by microplate reader analysis; format: tissue-based
[30] = molecular target: T1, Pyruvate kinase PKM; assay: Inhibition of PKM2 (unknown origin) assessed as increase in tetramer ratio by analytical size-exclusion chromatography; details: dose 5.0 µM
Target sequence in this assay (P14618 2-531 limits assumed): as above

[31] = system: 4T1; assay: Downregulation of PKM2 mRNA expression in mouse 4T1 cells at 0.25 to 0.5 uM incubated for 24 hrs by qPCR analysis; format: functional, cell-based; details: dose 0.25-0.5 µM
[32] = Downregulation of PKM2 mRNA expression in human HCC1937 cells assessed as fold change at 0.25 uM incubated for 24 hrs by qPCR analysis; format: functional
[33] = Downregulation of PKM2 mRNA expression in human HCC1937 cells assessed as fold change at 0.5 uM incubated for 24 hrs by qPCR analysis; format: functional
[34] = system: HCC1937; assay: Downregulation of PKM1 mRNA expression in human HCC1937 cells at 0.25 to 5 uM incubated for 24 hrs by qPCR analysis; format: functional, cell-based; details: dose 0.25-5 µM
[35] = system: MCF7; assay: cells; details: Homo sapiens, MCF7, 48 h
Description: Cytotoxicity against human MCF7 cells assessed as inhibition of cell growth incubated for 48 hrs by MTT assay

[36] = system: A549; assay: cells; details: Homo sapiens, A549, 48 h
Description: Cytotoxicity against human A549 cells assessed as inhibition of cell growth incubated for 48 hrs by MTT assay

[37] = molecular target: Pyruvate kinase PKLR (Homo sapiens) (UniProt P30613); assay: Inhibition of PKR (unknown origin) at 1 uM relative to control
Sequence of Pyruvate kinase PKLR (Homo sapiens) (P30613 whole entry, looked up): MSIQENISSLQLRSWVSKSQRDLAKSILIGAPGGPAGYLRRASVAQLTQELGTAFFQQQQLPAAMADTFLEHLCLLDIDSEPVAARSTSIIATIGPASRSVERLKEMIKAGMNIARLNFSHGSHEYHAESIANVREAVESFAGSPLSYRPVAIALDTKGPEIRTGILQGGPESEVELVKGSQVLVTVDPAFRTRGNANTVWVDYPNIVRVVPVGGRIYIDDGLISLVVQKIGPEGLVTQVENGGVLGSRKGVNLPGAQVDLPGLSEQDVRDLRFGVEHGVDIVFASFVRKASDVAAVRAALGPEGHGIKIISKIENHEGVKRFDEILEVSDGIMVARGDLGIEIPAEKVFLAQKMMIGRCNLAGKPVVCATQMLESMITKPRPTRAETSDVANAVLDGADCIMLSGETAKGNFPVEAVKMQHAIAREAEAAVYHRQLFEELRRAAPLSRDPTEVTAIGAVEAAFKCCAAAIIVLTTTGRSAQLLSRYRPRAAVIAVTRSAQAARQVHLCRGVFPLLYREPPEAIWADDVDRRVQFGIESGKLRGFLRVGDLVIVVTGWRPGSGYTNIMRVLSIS

COC(=O)c1cc[n+]2[se]c(C3(O)CCCCC3)c(Br)c2c1.[Cl-]
IC50 at 48 h [1]: 2.46 µM | IC50 [2]: 0.44 µM | IC50 [3]: 0.33 µM | IC50 [4]: 0.51 µM | IC50 [5]: 0.32 µM | Activity [6]: Active | Activity [7]: Active | Activity [8]: Active | Activity [9]: Active | Activity [10]: Active | Activity [11]: Active | Activity [12]: Active | Activity [13]: Active | Activity [14]: Active | Activity [15]: Active | Activity [16]: Active | Activity [17]: Active | Activity [18]: inactive | Activity [19]: 42.8% | Activity [20]: 57.4% | Activity [21]: inactive | Activity [22]: inactive | Activity [23]: inactive | IC50 [24]: 0.25 µM | IC50 [25]: 0.35 µM | IC50 [26]: 0.477 µM | inhibition [27]: 13% | inhibition ([27]; tested as the 2H-labelled form): 10% | inhibition [28]: 10% | inhibition ([28]; tested as the 2H-labelled form): 13% | EC50 [29]: 3490 µM | inhibition [30]: Dose-Dependent Effect | Activity [31]: Active | fold change (FC) [32]: 4 | fold change (FC) [33]: 20 | Activity [34]: inactive | IC50 [35]: 1.16 µM | IC50 [36]: 1.3 µM | inhibition [37]: 21% | inhibition ([37]; tested as the 2H-labelled form): 16%
